This is an account of results in US6495525B1, “VLA-4 inhibitor: oMePUPA-V” (Biogen, Inc., priority 1998, dated 2002).

One data set deals with T1, VLA-5 (Homo sapiens, UniProt P05556+P08648).
T1 construct: endogenous in cells; host or cells: K562 cells
Description: Adhesion of K562 cells to Fn-120 (VLA-5 / α5β1-FN adhesion). It counts as cell-based. As to the method: Untreated 96 well polystyrene flat bottom plates were coated with 5 μg/ml Fn-120 overnight at 4° C. The plates were washed twice with phosphate buffered saline (PBS) and blocked with 1% Bovine Serum Albumin (BSA) for 1 hour at room temperature. The plates were washed twice with TBS buffer containing 1 mM MnCl2 (assay buffer). K562 cells were labeled with 2 μM of the fluorescent dye, BCECF-AM (see section 4.1.3), and bound to the plate for 30 minutes at room temperature. The plates were inverted and washed three times and adherent cells were quantitated in a Cytofluor fluorescent platereader using an excitation wavelength of 485 nm and an emission wavelength of 530

A short description of a further data set: Crystallinity. It counts as physicochemical.
Data set [1] has as its system sRBC-induced DTH model in mice. Description: sRBC-induced delayed type hypersensitivity, footpad swelling. It counts as in vivo. The following applies: 20 mg/kg enterally. The method, then: Specific pathogen-free female Balb/c mice, aged 8-10 weeks, from Jackson Labs were used for all experiments. The animals were fed food and water ad libitum. Sheep red blood cells (sRBC) in Alsever's solution from the same sheep were obtained weekly from Charles River Pharm. Services (Southbridge, Mass.). The sRBC were pelleted by centrifugation at 1000 g for 10 minutes at 4° C. and any visible buffy coat removed. The cells were then washed in saline. The cell pellet was resuspended in saline and counted using a hemocytometer. The cells were diluted in phosphate buffered saline (PBS) to 2×10^8 sRBC per mL. On Day 0, mice were sensitized by a s.c. injection of 2×10^7 sRBC in 100 μL PBS. On Day 5, sRBC were prepared as above, but diluted in PBS to a final concentration of 4×10^9 sRBC per ml. Of this preparation, 25 μL was injected s.c. into the right rear footpad.
For enteral administration of compound, oMePUPA-V (Lot #2770-029) was formulated in a vehicle of 60% PEG 400 in 0.02M TRIS to a stock concentration of 5 mg/mL. […]
Swelling of unchallenged control (left) and challenged (right) rear footpads was measured using a tension caliper from Mitutoyo (Model #304-196, Dyer, Lancaster, Pa.) at 20 hours post-footpad challenge. The data are presented as the change in footpad thickness, determined by subtracting the left hind paw thickness from the right hind paw thickness. […]

The target of another data set is T2, α4β1 (Homo sapiens, UniProt P05556+P13612).
T2 construct: endogenous in cells; host or cells: Jurkat (human T cell line)
T2 sequence (P13612 34-1032): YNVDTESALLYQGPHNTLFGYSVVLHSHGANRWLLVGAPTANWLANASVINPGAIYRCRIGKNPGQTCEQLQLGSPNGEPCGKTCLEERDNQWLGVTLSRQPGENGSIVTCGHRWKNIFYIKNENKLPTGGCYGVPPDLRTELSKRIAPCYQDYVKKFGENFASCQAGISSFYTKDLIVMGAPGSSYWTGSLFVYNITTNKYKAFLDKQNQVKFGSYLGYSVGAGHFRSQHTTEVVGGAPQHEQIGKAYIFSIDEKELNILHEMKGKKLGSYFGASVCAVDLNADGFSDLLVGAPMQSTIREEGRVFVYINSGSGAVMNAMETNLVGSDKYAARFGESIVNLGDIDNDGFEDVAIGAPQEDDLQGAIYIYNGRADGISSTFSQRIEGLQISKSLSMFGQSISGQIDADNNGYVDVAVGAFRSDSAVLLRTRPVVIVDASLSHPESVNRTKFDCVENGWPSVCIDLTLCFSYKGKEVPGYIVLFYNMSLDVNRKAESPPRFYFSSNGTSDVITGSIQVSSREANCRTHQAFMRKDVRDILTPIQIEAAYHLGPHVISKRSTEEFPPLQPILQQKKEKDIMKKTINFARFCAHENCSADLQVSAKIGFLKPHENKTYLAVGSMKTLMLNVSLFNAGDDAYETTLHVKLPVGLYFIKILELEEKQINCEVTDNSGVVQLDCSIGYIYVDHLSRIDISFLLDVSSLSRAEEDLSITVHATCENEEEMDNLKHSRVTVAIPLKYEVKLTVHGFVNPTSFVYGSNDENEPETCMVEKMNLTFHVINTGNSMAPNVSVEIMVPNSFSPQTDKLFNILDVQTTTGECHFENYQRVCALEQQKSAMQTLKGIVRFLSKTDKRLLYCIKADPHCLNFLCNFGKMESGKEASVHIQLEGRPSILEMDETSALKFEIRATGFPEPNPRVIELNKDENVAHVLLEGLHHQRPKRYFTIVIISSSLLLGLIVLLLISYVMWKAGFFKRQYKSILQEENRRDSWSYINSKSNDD
T2 sequence (P05556 21-798): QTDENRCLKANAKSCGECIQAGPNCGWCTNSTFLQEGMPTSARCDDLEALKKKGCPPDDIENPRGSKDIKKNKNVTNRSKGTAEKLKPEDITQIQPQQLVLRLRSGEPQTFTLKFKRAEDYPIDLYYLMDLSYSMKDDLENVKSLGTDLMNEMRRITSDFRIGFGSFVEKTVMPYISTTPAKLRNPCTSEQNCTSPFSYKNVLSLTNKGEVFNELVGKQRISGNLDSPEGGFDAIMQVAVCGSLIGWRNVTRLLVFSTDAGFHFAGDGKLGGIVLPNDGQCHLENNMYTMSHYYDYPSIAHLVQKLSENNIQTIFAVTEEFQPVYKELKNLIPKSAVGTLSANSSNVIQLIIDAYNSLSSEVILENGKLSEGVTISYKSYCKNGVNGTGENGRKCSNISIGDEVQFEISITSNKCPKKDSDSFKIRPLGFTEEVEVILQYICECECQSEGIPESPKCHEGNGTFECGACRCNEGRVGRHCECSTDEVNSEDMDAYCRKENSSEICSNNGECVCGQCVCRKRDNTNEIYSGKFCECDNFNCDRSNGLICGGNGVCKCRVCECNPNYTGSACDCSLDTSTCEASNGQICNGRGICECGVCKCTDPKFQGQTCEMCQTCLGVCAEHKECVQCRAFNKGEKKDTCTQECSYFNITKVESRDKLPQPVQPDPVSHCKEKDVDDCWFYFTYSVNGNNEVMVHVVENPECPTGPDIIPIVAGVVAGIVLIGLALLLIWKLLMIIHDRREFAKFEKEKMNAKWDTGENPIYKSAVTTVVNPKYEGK
Description: LIBS induction on Jurkat cells with antibody 9EG7 (FACS). The data set is classed as cell-based. The following applies: 2 mM Mg+2 buffer, read-out: EC50 of LIBS epitope induction. As to the method:
Jurkat cells (2×10^5/well) were preincubated at 37° C. for 20 minutes with TRIS-buffered saline containing 2 mM MgCl2 (Mg^+2-TBS) alone or with serial dilutions of test compounds. The samples were transferred to an ice bath and supplemented with LIBS antibody, 9EG7, at a final concentration of 10 μg/ml. The cells were washed twice with Mg^+2-TBS and resuspended in a 1:200 dilution of a FITC conjugated-goat anti-rat IgG in Mg^+2-TBS and incubated for 30 min at 4° C. The cells were washed twice and resuspended in Mg^+2-TBS. Mean fluorescence intensity (MFI) was determined by FACS analysis (Becton Dickinson FACScan). Results are expressed as MFI. Data were analyzed by Microsoft Excel v5.0 and Deltagraph v4.0 software.

The target in another data set is VLA-4 (Homo sapiens, UniProt P05556+P13612). Description: Competition / dissociation assay with 3H-known inhibitor on Jurkat cells. The data set is classed as binding. On the set-up: endogenous in cells; host or cells: Jurkat (human T cell line). The following applies: Mn+2-activated VLA-4. The method, then:
Jurkat cells were maintained in RPMI-1640 medium plus 10% fetal bovine serum at 37° C. in a tissue culture incubator. For binding studies, the cells were pelleted by centrifugation, washed two times with TBS (50 mM Tris HCl, 150 mM NaCl, 0.1% bovine serum albumin, 2 mM glucose, 10 mM HEPES pH 7.4), suspended at approximately 2×10^6 cells/ml in TBS, and counted using a Neubauer hemocytometer. The cells were further diluted to 1.5×10^6/ml in the buffers indicated and subjected to the specific treatments defined for each experiment. The cells were then pelleted by centrifugation, resuspended in 100 μl of assay buffer, and transferred to a scintillation vial containing 2.9 ml of ScintiVerse II (Fisher Scientific). Cell-associated radioactivity was quantified by scintillation counting. Counts bound under these conditions measures integrin that is not occupied by the test compound and is therefore free to bind the ^3H-known inhibitor. […] Specific counts bound were calculated by subtracting non-specific counts from total counts bound.
A series of competition studies were performed to verify that oMePUPA-V and the known inhibitor compete for the same site on VLA-4. […] Third, Mn^+2-activated Jurkat cells were treated with saturating amounts of oMePUPA-V, and the rate at which the oMePUPA-V dissociated was measured. […]

SMILES strings stand for the structures. “Also recorded” adds a separate entry of the source. Some results are limits rather than exact numbers.

T1 sequence (P08648 42-894 limits assumed): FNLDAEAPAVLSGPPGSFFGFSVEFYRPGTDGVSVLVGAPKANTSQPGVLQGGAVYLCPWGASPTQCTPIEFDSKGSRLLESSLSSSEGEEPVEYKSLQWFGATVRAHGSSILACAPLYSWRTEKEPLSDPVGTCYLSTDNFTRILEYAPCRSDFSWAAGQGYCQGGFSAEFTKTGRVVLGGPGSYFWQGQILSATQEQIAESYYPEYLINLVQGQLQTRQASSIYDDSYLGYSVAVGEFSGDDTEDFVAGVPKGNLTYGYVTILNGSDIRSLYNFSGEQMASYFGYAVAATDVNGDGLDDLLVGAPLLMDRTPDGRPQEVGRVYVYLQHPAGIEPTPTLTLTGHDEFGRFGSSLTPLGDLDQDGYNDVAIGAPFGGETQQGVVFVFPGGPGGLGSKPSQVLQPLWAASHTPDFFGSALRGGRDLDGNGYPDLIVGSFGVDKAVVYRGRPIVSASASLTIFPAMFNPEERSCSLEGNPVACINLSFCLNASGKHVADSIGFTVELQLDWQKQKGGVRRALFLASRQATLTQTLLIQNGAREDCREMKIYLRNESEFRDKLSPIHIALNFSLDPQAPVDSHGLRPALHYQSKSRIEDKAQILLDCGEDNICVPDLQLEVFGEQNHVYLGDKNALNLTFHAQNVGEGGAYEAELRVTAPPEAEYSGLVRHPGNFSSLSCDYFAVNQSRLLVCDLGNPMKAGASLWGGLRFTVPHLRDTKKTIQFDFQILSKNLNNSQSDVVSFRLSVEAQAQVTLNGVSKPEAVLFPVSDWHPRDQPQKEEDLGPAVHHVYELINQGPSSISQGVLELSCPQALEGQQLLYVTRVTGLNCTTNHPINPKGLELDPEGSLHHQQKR
T1 sequence (P08648 895-1049 partner limits assumed): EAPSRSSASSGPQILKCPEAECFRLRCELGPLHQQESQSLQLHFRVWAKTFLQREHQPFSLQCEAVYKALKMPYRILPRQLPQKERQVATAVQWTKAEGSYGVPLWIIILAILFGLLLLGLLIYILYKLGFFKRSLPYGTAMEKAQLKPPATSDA
T1 sequence (P05556 21-798): as the sequence (P05556 21-798) above
Chain of VLA-4 (P13612 34-1032): as the sequence (P13612 34-1032) above
Chain of VLA-4 (P05556 21-798): as the sequence (P05556 21-798) above

Consider `Cc1ccccc1NC(=O)Nc1ccc(CC(=O)N2CCC[C@H]2C(=O)N[C@H](C)CC(=O)O)cc1` [oMePUPA-V], for which the “measurable activity against VLA-5” value on VLA-5 is > 100 µM. In addition, at VLA-5 (@ 100 μM, Mn+2, 100 µM), the “inhibition, K562 (VLA-5) Fn-120 adhesion” value is reported as “no inhibition; also recorded: no inhibition @”. Also, the IC50 at VLA-5 (read-out: IC50 against α5β1-FN adhesion) is > 100 µM. The Crystallinity result in the data set “Crystallinity” is on record as “YES”. In data set [1], the “effect on footpad swelling (in words)” value is “without effect”. The EC50 on α4β1 is ~0.02 µM. The “concentration needed to compete 3H-known inhibitor binding, relative to cold known inhibitor” value on VLA-4 is 10 fold.

A word on the IC50: it is the midpoint of a concentration-inhibition curve. What is called EC50 is the concentration that produces a half-maximal response.
